According to BigSolDB 2.1:

O=C1c2cccc(Cl)c2C(=O)N1c1ccccc1
solubility (mole fraction)
Settings	in 1,4-dioxane	in acetic acid	in acetone	in acetonitrile	in ethyl acetate	in isobutanol	in isopropanol	in methanol	in n-butanol	in n-propanol
288.15 K	0.00825	0.000923	0.00298	0.00196	0.0021	0.000116	7.27e-05	0.000147	0.000183	0.000162
290.65 K	0.00898	0.00104	0.00324	0.00216	0.00232	0.000128	8.36e-05	0.000171	0.000204	0.000187
293.15 K	0.00979	0.00116	0.00358	0.00236	0.00255	0.000149	9.82e-05	0.000194	0.000234	0.000226
295.65 K	0.0107	0.0013	0.00392	0.00258	0.00284	0.000167	0.000111	0.00022	0.000266	0.000266
298.15 K	0.0115	0.00145	0.00429	0.0028	0.00315	0.000189	0.000132	0.000249	0.000308	0.000311
300.65 K	0.0125	0.00159	0.00468	0.00305	0.00347	0.000221	0.000151	0.00028	0.000345	0.000353
303.15 K	0.0134	0.00175	0.00505	0.00332	0.0038	0.000258	0.000178	0.000308	0.000388	0.000411
305.65 K	0.0145	0.00189	0.00551	0.00361	0.00412	0.000296	0.000208	0.000339	0.000432	0.000468
308.15 K	0.0158	0.00206	0.00597	0.00397	0.00448	0.000341	0.000237	0.000381	0.000478	0.000527
310.65 K	0.0171	0.00225	0.00654	0.0043	0.00484	0.000392	0.000268	0.000428	0.000535	0.000593
313.15 K	0.0188	0.00248	0.00718	0.0047	0.00525	0.000457	0.000305	0.000478	0.000597	0.000668
315.65 K	0.0204	0.00273	0.00779	0.00514	0.00568	0.000526	0.000345	0.000533	0.000665	0.000747
318.15 K	0.0224	0.00299	0.00851	0.00553	0.00617	0.000599	0.000387	0.00059	0.00074	0.00083
320.65 K	0.0243	0.00328	0.00919	0.00603	0.00669	0.000679	0.000445	0.000656	0.000821	0.000917
323.15 K	0.0266	0.00364	0.00995	0.00655	0.00734	0.000762	0.00053	0.000745	0.000908	0.00103
